The record followed here is patent US9724276B2, “Dental materials and method of manufacture” (Valspar Sourcing, Inc., priority 2012, dated 2017).

Test system in the first series: not listed separately
In words: genotoxicity assays (e.g., Ames II assay).
Conditions: not given
On the technique in general: In the Ames test, an excess of revertant colonies over the control signals mutagenicity.
Turning to `CC(C)(C)c1cc(Cc2cc(C(C)(C)C)c(OCC3CO3)c(C(C)(C)C)c2)cc(C(C)(C)C)c1OCC1CO1` (stereo not drawn) [Diglycidyl ether of 4,4′-methylenebis(2,6-di-tert-butylphenol)], the genotoxicity result was “non-genotoxic”.

The next series concerns the target T1, human estrogen receptor (Homo sapiens, UniProt P03372).
T1 sequence (P03372 1-595): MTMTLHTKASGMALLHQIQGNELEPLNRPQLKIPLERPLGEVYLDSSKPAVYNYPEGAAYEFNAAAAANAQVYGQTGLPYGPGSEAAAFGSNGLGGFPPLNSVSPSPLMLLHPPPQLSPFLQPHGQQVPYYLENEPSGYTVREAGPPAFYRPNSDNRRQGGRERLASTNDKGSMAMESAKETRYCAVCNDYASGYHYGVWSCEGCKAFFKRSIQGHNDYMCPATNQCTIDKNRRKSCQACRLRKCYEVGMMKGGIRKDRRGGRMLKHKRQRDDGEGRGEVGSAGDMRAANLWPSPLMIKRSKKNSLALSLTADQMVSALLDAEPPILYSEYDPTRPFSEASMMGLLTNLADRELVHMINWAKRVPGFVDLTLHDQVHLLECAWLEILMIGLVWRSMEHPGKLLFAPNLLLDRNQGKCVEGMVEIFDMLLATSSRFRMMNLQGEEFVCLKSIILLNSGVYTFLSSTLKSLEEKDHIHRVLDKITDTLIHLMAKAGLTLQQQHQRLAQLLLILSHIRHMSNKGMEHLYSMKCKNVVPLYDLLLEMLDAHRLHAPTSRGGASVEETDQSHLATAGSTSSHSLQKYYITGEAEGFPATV
In words: suitable in vitro assay of estrogenic activity whose results correlate with the MCF-7 assay (outside toxicology laboratory). As to conditions: in vitro assay correlated to MCF-7 assay through common reference compounds. On the procedure: The polyhydric phenols used to make the diglycidyl ethers of each of Runs I-III were assayed for estrogenic activity by an outside toxicology laboratory using a suitable assay whose results are known to be directly correlatable to the MCF-7 assay based on common reference compounds.
As for `Cc1cc(Cc2cc(C)cc(C(C)(C)C)c2O)c(O)c(C(C)(C)C)c1` [Structure 9], the estrogenic activity result was “do not exhibit appreciable estrogenic activity”.

Regarding `Cc1cc(Cc2cc(C)c(O)c(C)c2)cc(C)c1O` [Structure 6, 4,4′-methylenebis(2,6-dimethylphenol)], the estrogenic activity entry is on record as “do not exhibit appreciable estrogenic activity”.

For `CC(C)(C)c1cc(O)c(C(C)(C)C)cc1O` [Structure 12, 2,5-di-t-butylhydroquinone], the estrogenic activity result is on record as “do not exhibit appreciable estrogenic activity”.

As to `CC(C)(C)c1cc(Cc2cc(C(C)(C)C)c(O)c(C(C)(C)C)c2)cc(C(C)(C)C)c1O` [Structure 8, 4,4′-methylenebis(2,6-di-t-butylphenol)], the estrogenic activity result is “do not exhibit appreciable estrogenic activity”.

For `CCCC(c1cc(C(C)(C)C)c(O)cc1C)c1cc(C(C)(C)C)c(O)cc1C` [Structure 7, 4,4′-butylidenebis(2-t-butyl-5-methylphenol)], the estrogenic activity entry is “do not exhibit appreciable estrogenic activity”.

The subject of a further series is MCF-7, clone WS8, cells. In words: MCF-7 cell proliferation assay of estrogenic activity. It is filed as cell-based, human. As to conditions: logarithmic (base 10) Relative Proliferative Effect relative to 17-beta estradiol, MCF-7 assay; values 'expected or measured'. The text has this: The MCF-7 assay is a useful test for assessing whether a polyhydric phenol compound is appreciably non-estrogenic. The MCF-7 assay uses MCF-7, clone WS8, cells to measure whether and to what extent a substance induces cell proliferation via estrogen receptor (ER)-mediated pathways. The method is described in “Test Method Nomination: MCF-7 Cell Proliferation Assay of Estrogenic Activity” submitted for validation by CertiChem, Inc. to the National Toxicology Program Interagency Center for the Evaluation of Alternative Toxicological Methods (NICEATM) on Jan. 19, 2006 (available online at iccvam.niehs.nih gov/methods/endocrine/endodocs/SubmDoc.pdf).
A brief summary of the method of the aforementioned MCF-7 assay is provided below. MCF-7, clone WS8, cells are maintained at 37° C. in RMPI (or Roswell Park Memorial Institute medium) containing Phenol Red (e.g., GIBCO Catalog Number 11875119) and supplemented with the indicated additives for routine culture. An aliquot of cells maintained at 37° C. are grown for two days in phenol-free media containing 5% charcoal stripped fetal bovine serum in a 25 cm^2 tissue culture flask. Using a robotic dispenser such as an EPMOTION™ 5070 unit from Eppendorf AG, MCF-7 cells are seeded at 400 cells per well in 0.2 ml of hormone-free culture medium in Corning 96-well plates. The cells are adapted for 3 days in the hormone-free culture medium prior to adding the chemical to be assayed for estrogenic activity. The media containing the test chemical is replaced daily for 6 days. At the end of a 7 day exposure to the test chemical, the media is removed, the wells are washed once with 0.2 ml of HBSS (Hanks' Balanced Salt Solution), and then assayed to quantify amounts of DNA per well using a micro-plate modification of the Burton diphenylamine (DPA) assay, which is used to calculate the level of cell proliferation. […]
On to `C[C@]12CC[C@@H]3c4ccc(O)cc4CC[C@H]3[C@@H]1CC[C@@H]2O` [17β-estradiol], for which the “Log RPE” value is 2.00.

As to `O=S(=O)(c1ccc(O)cc1)c1ccc(O)cc1` [Bisphenol S], the “Log RPE” value is recorded as −2.

With `Oc1ccc(Cc2ccc(O)cc2)cc1` [Bisphenol F], the “Log RPE” value is reported as −2.
